Results reported in patent publication US20240269139A1, “COMPOUNDS FOR TARGETED PROTEIN DEGRADATION OF KINASES” (DANA-FARBER CANCER INSTITUTE, INC., priority 2020, published 2024).
Read-outs that look alike come from different tables or passages of the source.

Columns and labels:
Format in all cases: cell-based
[1] = biological target: T1, protein kinases (human kinome) (Homo sapiens, UniProt P11387); details: TOP1 P11387
T1 sequence (P11387 1-765): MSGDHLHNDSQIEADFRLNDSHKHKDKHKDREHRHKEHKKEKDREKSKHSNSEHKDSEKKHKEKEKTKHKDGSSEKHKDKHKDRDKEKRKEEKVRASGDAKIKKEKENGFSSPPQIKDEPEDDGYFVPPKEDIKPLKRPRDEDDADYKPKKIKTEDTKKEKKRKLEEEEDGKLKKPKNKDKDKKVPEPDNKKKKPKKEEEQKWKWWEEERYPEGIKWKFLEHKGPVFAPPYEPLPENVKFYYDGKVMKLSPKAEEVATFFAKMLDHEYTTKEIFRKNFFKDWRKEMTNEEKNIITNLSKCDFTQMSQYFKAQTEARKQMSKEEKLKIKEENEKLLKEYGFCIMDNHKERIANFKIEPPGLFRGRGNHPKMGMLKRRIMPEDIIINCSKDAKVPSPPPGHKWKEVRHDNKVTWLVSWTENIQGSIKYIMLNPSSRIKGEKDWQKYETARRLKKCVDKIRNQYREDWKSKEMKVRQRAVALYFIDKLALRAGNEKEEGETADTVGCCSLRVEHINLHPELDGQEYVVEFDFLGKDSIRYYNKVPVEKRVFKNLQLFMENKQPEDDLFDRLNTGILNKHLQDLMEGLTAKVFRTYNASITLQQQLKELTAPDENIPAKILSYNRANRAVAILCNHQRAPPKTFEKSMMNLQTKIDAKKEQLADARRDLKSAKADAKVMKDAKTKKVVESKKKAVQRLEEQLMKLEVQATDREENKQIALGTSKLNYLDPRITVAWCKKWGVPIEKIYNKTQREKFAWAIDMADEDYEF

[2] = biological target: protein kinases (human kinome) (Homo sapiens, UniProt Q9NSY1); details: BMP2K Q9NSY1
[3] = biological target: T2, protein kinases (human kinome) (Homo sapiens, UniProt Q8TD19)
T2 sequence (Q8TD19 1-979): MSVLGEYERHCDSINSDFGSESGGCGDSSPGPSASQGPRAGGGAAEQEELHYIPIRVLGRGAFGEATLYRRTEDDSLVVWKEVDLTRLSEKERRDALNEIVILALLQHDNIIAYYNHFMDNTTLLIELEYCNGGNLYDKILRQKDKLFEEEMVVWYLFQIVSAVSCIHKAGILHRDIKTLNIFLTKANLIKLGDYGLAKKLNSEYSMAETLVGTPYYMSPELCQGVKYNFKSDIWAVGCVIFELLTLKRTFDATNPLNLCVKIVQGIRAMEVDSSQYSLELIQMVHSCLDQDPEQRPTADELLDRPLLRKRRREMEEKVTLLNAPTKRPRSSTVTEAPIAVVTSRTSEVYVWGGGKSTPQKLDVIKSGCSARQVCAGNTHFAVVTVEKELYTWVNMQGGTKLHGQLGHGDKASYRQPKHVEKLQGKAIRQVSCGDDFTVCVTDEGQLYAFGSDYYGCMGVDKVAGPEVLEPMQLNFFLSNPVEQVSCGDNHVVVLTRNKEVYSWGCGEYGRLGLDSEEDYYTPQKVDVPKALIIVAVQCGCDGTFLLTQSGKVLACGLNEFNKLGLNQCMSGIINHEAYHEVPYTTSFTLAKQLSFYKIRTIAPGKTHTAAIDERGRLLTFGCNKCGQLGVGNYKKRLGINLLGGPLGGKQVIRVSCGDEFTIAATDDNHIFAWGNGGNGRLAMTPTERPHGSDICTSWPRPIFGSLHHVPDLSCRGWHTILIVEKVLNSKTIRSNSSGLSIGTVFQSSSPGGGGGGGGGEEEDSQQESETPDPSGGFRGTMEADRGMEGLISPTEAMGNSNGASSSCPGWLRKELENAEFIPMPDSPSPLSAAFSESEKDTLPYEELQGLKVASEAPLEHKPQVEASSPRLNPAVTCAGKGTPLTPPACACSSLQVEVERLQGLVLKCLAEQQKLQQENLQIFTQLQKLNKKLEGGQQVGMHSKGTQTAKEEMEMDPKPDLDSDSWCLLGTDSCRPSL

[4] = biological target: protein kinases (human kinome) (Homo sapiens, UniProt Q15418); details: for logFC: RPS6KA1 (Q15418-1), direction down
[5] = biological target: protein kinases (human kinome) (Homo sapiens, UniProt Q16659)
[6] = NEK9 (Q8TD19), experiment wp045, direction down
[7] = NEK9 (Q8TD19), experiment wp117, direction down
[8] = MAPK6 (Q16659), experiment wp131

Sequence of protein kinases (human kinome) (Homo sapiens, UniProt Q16659) (Q16659 whole entry): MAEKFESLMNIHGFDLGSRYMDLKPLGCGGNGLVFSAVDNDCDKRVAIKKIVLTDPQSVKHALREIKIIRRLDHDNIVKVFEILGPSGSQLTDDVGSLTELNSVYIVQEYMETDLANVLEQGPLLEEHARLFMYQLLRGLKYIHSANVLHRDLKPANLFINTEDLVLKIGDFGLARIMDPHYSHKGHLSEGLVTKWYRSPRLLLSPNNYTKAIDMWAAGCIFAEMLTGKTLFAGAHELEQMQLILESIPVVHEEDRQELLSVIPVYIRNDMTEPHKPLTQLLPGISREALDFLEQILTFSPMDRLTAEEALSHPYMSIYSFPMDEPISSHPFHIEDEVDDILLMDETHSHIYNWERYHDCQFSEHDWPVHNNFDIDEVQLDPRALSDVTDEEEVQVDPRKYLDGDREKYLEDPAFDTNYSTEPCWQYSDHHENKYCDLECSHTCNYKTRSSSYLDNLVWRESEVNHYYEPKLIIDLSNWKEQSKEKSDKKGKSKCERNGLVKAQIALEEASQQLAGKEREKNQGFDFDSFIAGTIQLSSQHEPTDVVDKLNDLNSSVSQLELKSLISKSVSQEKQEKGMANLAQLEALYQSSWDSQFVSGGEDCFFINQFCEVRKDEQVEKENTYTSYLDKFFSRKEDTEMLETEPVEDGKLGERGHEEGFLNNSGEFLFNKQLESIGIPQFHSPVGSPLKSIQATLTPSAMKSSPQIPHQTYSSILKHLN
Sequence of protein kinases (human kinome) (Homo sapiens, UniProt Q9NSY1) (Q9NSY1 whole entry): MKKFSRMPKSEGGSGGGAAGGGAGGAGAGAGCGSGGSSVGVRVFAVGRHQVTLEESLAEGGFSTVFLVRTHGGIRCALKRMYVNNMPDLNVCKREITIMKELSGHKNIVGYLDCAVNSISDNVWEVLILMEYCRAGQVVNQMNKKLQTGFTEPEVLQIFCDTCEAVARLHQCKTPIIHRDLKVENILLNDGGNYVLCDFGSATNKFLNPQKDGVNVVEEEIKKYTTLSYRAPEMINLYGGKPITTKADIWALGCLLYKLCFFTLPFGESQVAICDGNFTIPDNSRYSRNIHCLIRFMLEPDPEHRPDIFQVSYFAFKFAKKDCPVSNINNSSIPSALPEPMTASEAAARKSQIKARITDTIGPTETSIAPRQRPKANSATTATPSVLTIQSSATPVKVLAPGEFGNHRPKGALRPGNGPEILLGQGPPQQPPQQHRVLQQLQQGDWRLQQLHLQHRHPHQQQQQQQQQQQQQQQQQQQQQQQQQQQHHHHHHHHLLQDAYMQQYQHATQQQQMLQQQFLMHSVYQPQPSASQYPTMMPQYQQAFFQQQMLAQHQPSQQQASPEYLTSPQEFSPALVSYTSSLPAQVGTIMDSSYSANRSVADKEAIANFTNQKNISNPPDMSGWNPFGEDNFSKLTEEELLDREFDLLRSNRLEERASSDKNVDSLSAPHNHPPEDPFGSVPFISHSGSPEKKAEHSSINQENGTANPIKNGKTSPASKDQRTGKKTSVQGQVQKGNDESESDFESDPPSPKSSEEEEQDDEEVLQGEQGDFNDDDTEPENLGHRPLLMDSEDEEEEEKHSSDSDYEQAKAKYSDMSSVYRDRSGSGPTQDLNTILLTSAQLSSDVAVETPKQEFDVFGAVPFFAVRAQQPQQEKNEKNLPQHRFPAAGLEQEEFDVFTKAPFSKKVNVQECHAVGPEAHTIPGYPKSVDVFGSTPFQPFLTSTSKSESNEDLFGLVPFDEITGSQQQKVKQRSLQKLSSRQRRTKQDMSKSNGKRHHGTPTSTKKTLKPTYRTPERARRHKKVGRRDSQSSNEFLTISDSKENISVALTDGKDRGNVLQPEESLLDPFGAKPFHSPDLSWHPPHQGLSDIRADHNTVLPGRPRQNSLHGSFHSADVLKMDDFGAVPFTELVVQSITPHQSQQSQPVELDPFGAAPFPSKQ
Sequence of protein kinases (human kinome) (Homo sapiens, UniProt Q15418) (Q15418 whole entry): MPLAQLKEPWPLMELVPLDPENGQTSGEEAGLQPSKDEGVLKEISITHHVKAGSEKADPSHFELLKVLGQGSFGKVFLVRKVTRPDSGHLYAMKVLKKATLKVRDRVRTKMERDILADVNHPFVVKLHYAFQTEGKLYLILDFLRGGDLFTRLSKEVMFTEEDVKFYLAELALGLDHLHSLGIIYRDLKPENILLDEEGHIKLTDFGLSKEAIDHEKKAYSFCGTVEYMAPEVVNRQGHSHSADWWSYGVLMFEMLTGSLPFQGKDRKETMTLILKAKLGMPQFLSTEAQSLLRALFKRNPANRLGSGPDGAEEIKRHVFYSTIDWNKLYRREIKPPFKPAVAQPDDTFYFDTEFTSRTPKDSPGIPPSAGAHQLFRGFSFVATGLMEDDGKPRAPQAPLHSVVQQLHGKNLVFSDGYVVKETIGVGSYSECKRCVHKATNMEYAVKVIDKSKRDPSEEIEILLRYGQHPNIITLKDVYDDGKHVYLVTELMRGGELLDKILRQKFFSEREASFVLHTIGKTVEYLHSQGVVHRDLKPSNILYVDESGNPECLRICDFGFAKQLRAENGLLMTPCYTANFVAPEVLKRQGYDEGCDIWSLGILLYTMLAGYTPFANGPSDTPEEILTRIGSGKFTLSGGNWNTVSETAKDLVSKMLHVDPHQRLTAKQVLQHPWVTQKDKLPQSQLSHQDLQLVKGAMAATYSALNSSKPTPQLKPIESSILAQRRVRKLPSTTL

## CC(=O)c1c(C)c2cnc(Nc3ccc(N4CCN(CCOCCOCCOCCNC(=O)COc5cccc6c5C(=O)N(C5CCC(=O)NC5=O)C6=O)CC4)cn3)nc2n(C2CCCC2)c1=O (stereo not drawn) [BSJ.03.123]
[1]; experiment wp084
  logFC: −0.3381

## O=C(COc1cccc2c1C(=O)N(C1CCC(=O)NC1=O)C2=O)NCCCCCCCN1CCc2cc(Nc3ncc(C4CC4)c(NCCCNC(=O)C4CCC4)n3)ccc2C1 (stereo not drawn) [BSJ.04.178]
[2]; experiment wp134
  logFC: −0.6929
  logFC BMP2K: −0.6929

## CS(=O)(=O)Nc1cccc(-c2csc3cnc(Nc4ccc(N5CCN(CCCCCOc6cccc7c6C(=O)N(C6CCC(=O)NC6=O)C7=O)CC5)cc4)nc23)c1 (stereo not drawn) [DB0614, N-(3-(2-((4-(4-(5-((2-(2,6-Dioxopiperidin-3-yl)-1,3-dioxoisoindolin-4-yl)oxy)pentyl)piperazin-1-yl)phenyl)amino)thieno[3,2-d]pyrimidin-7-yl)phenyl)methanesulfonamide]
[2]; experiment wp045
  logFC: −0.3909
  logFC BMP2K: −0.3909
[3]; [6]
  logFC: −2.74
[3]; [7]
  logFC: −3.006
[3]; NEK9 Q8TD19, experiment wp045
  logFC: −2.74
[3]; NEK9 Q8TD19, experiment wp117
  logFC: −3.006

## Cc1ccc(NC(=O)c2cccc(C(F)(F)F)c2)cc1N1Cc2cnc(Nc3ccc(N4CCN(Cc5cn(CCCCCOc6cccc7c6C(=O)N(C6CCC(=O)NC6=O)C7=O)nn5)CC4)nc3)nc2N(C)C1=O (stereo not drawn) [DB0646, N-(3-(7-((6-(4-((1-(5-((2-(2,6-Dioxopiperidin-3-yl)-1,3-dioxoisoindolin-4-yl)oxy)pentyl)-1H-1,2,3-triazol-4-yl)methyl)piperazin-1-v)pyridin-3-yl)amino)-1-methyl-2-oxo-1,4-dihydropyrimido[4,5-d]pyrimidin-3(2H)-yl)-4-methylphenyl)-3-(trifluoromethyl)benzamide]
[4]; experiment wp160, 8 hr
  logFC: −0.413
  logFC RPS6KA1 (Q15418-1): −0.413

## Cc1ccc(NC(=O)c2cccc(C(F)(F)F)c2)cc1N1Cc2cnc(Nc3ccc(N4CCN(CCCOc5cccc6c5C(=O)N(C5CCC(=O)NC5=O)C6=O)CC4)nc3)nc2N(C)C1=O (stereo not drawn) [DB0662]
[4]; experiment wp168
  logFC: −0.4724
  logFC RPS6KA1 (Q15418-1): −0.4724

## CC(C)(C)c1nc(-c2cccc(NS(=O)(=O)c3c(F)cccc3F)c2F)c(-c2ccnc(NCCOCCNC(=O)CCOCCOCCNc3cccc4c3C(=O)N(C3CCC(=O)NC3=O)C4=O)n2)s1 (stereo not drawn) [DD.03.106]
[1]; experiment wp147, 4 uM
  logFC: −0.4525

## CC(C)(C)c1nc(-c2cccc(NS(=O)(=O)c3c(F)cccc3F)c2F)c(-c2ccnc(NCCOCCNC(=O)CCOCCOCCNc3cccc4c3CN(C3CCC(=O)NC3=O)C4=O)n2)s1 (stereo not drawn) [DD.03.107]
[1]; experiment wp147, 1 uM
  logFC: −0.3823
[1]; experiment wp147, 2 uM
  logFC: −0.4234
[1]; experiment wp147, 4 uM
  logFC: −0.4699

## Cc1ncsc1-c1ccc([C@H](C)NC(=O)[C@@H]2C[C@@H](O)CN2C(=O)[C@@H](NC(=O)CCOCCOCCN2CCN(c3ccc(Nc4ncc(Cl)c(Nc5ccccc5S(=O)(=O)C(C)C)n4)cc3)CC2)C(C)(C)C)cc1 [FMF.06.098.1]
[5]; [8]
  logFC: −0.4123
  logFC MAPK6: −0.4123

## C[C@@H]1C[C@@H](O)c2ncnc(N3CCN(C(=O)[C@H](CNCCCCCCCCCCc4cccc5c4C(=O)N(C4CCC(=O)NC4=O)C5=O)c4ccc(Cl)cc4)CC3)c21 (stereo partly drawn) [INY.03.041.01]
[5]; MAPK6 (Q16659), experiment wp118
  logFC: −0.6183
[5]; MAPKG Q16659, experiment wp118
  logFC MAPKG: −0.6183

## Cc1cnc(Nc2ccc(N3CCN(CCOCCOCCNC(=O)COc4cccc5c4C(=O)N(C4CCC(=O)NC4=O)C5=O)CC3)cc2)nc1Nc1cccc(S(=O)(=O)NC(C)(C)C)c1 (stereo not drawn) [JWG.118]
[2]; experiment wp071
  logFC: −0.3528
  logFC BMP2K: −0.3528

## CS(=O)(=O)Nc1cccc(-c2csc3cnc(Nc4ccc(N5CCN(CCOCCOCCOc6cccc7c6C(=O)N(C6CCC(=O)NC6=O)C7=O)CC5)cc4)nc23)c1 (stereo not drawn) [RSS0628]
[3]; [6]
  logFC: −2.438
[3]; NEK9 Q8TD19, experiment wp045
  logFC: −2.438

## Cc1ncsc1-c1ccc([C@H](C)NC(=O)[C@@H]2C[C@@H](O)CN2C(=O)[C@@H](NC(=O)CCCCCN2CCN(c3ccc(Nc4ncc5scc(-c6cccc(NS(C)(=O)=O)c6)c5n4)cc3)CC2)C(C)(C)C)cc1 [RSS0680, (2S,4R)-1-((S)-3,3-Dimethyl-2-(6-(4-(4-((7-(3-(methylsulfonamido)phenyl)thieno[3,2-d]pyrimidin-2-yl)amino)phenyl)piperazin-1-yl)hexanamido)butanoyl)-4-hydroxy-N—((S)-1-(4-(4-methylthiazol-5yl)phenyl)ethyl)pyrrolidine-2-carboxamide]
[1]; experiment wp080
  logFC: −0.4687
[5]; MAPK6 Q16659, experiment wp080
  logFC: −0.5033
  logFC MAPK6: −0.5033
[3]; NEK9 (Q8TD19), experiment wp080, direction down
  logFC: −1.277
[3]; [7]
  logFC: −1.483
[3]; NEK9 Q8TD19, experiment wp080
  logFC: −1.277
[3]; NEK9 Q8TD19, experiment wp117
  logFC: −1.483

## CC(C)S(=O)(=O)c1ccccc1Nc1nc(Nc2ccc(N3CCN(CCOCCNC(=O)CNc4cccc5c4C(=O)N(C4CCC(=O)NC4=O)C5=O)CC3)cc2)ncc1Cl (stereo not drawn) [SK.3.91]
[2]; experiment wp016
  logFC: −0.4706
  logFC BMP2K: −0.4706
[2]; experiment wp105
  logFC: −0.4043
  logFC BMP2K: −0.4043
[4]; Experiment wp172
  logFC RPS6KA1 (Q15418-1): −0.4561
[4]; experiment wp107
  logFC: −0.3671
  logFC RPS6KA1 (Q15418-1): −0.3671
[4]; experiment wp160, 4 hr
  logFC: −0.363
  logFC RPS6KA1 (Q15418-1): −0.363
[4]; experiment wp172
  logFC: −0.4561
[5]; MAPK6 (Q16659), experiment wp133, 2 hr
  logFC: −0.8253
[5]; MAPK6 (Q16659), experiment wp133, 2 hr, direction down
  logFC: −0.8253
[5]; MAPK6 (Q16659), experiment wp133, 4 hr
  logFC: −1.614
[5]; MAPK6 (Q16659), experiment wp133, 4 hr, direction down
  logFC: −1.614
[5]; MAPK6 Q16659, experiment wp103
  logFC: −1.525
  logFC MAPK6: −1.525
[5]; MAPK6 Q16659, experiment wp107
  logFC: −1.345
  logFC MAPK6: −1.345

## CC(C)S(=O)(=O)c1ccccc1Nc1nc(Nc2ccc(N3CCN(CCOCCNC(=O)CNc4ccc5c(c4)C(=O)N(C4CCC(=O)NC4=O)C5=O)CC3)cc2)ncc1Cl (stereo not drawn) [SK.3.93]
[2]; experiment wp016
  logFC: −0.4575
  logFC BMP2K: −0.4575

## CC(C)S(=O)(=O)c1ccccc1Nc1nc(Nc2ccc(N3CCN(CCOCCOCCNC(=O)CNc4cccc5c4C(=O)N(C4CCC(=O)NC4=O)C5=O)CC3)cc2)ncc1Cl (stereo not drawn) [TL12.186]
[4]; experiment wp131
  logFC: −0.3562
  logFC RPS6KA1 (Q15418-1): −0.3562
[5]; [8]
  logFC: −1.488
[5]; MAPK6 (Q16659), experiment wp131, direction down
  logFC: −1.488

## C=CCn1c(=O)c2cnc(Nc3ccc(N4CCN(CCCNc5cccc6c5C(=O)N(C5CCC(=O)NC5=O)C6=O)CC4)cc3)nc2n1-c1cccc(C(C)(C)O)n1 (stereo not drawn) [ZNL.02.096]
[1]; experiment wp056
  logFC: −0.3756
